Where a SMILES comes first, the peptide text is derived from it. [ ]: non-standard residue; d: D form. The star is where a group is joined. Nle = CCCC[C@H](N)C(=O)O; Cbz = O=C(OCc1ccccc1)*
Experiments:
Format in all cases: cell-based
[1] = tested on: vif-mediated degradation of the luciferase/apobec3G fusion protein in HeLa cells; experiment: co-transfection of luciferase/apobec3G and vif constructs at varied ratios, luciferase activity (FIG. 4); conditions: for luciferase activity: 10 μM or 20 μM inhibitor, luciferase/apobec3G:vif 50:1 (tested 2:1, 25:1, 50:1, 100:1)
Protocol: Cells were co-transfected with the luciferase/apobec3G and vif constructs at relative concentrations of 2:1, 25:1, 50:1 and 100:1 (luciferase/apobec3G:vif) in the presence or absence of 10 μM or 20 μM MG132 or ALLN, known inhibitors of proteosome-mediated protein degradation.

[2] = tested on: vif-mediated degradation of the luciferase/apobec3G fusion protein; experiment: transient luciferase/apobec3G fusion reporter with co-introduced vif construct (chemiluminescence, western blot); conditions: Phoenix and HeLa cells; band in final lane of each western blot
Text: A construct encoding a luciferase/apobec3G fusion protein was introduced into Phoenix and HeLa cells and transient expression of the luciferase/apobec3G fusion protein was monitored by detecting chemiluminescence. Results were normalized to the number of cells assayed. […] The gels shown at the top of both FIGS. 3A and 3B show results obtained from western blots of cell extracts using antibodies. Tesults obtained using anti-apobec3G and anti-lactate dehydrogenase antibodies are indicated as “3G” and “LDH”, respectively.
This phenomenon is inhibited by adding MG132, a known inhibitor of proteosome-mediated protein degradation (see the band observed in the final lane of each of the western blots). Cells containing both vif and a luciferase/apobec3G reporter can therefore be used to test agents for vif-inhibitory activity.

vif activity = experiment: vif expressed from different vectors with luciferase/apobec3G in a cell (FIGS. 5A-5E); conditions: vif from pCMV, pcDNA6, pcDNA6 CTE, pEF6, pEF6 CTE constructs

Compound: CCCC[C@@H](C=O)NC(=O)[C@H](CC(C)C)NC(=O)[C@H](CC(C)C)NC(C)=O [ALLN] (Ac-Leu-Leu-[Nle]-aldehyde)
- luciferase activity [1]: maximally increased luciferase activity

Compound: CC(C)C[C@@H](C=O)NC(=O)[C@H](CC(C)C)NC(=O)[C@H](CC(C)C)NC(=O)OCc1ccccc1 [MG132] (Cbz-Leu-Leu-Leu-aldehyde)
- vif-caused decrease in luciferase activity / degradation of the luciferase/apobec3G fusion protein [2]: inhibited
- luciferase activity [1]: maximally increased luciferase activity
- activity of an apobec3G-luciferase fusion ([1]; in the presence of apobec3G/vif in HeLa cells (FIG. 4 legend)): increased activity
- modulation of vif activity (vif activity): could be modulated
